Legend:
[1] = test system: human lung cancer strain NCI-H441; assay type: cell-based
Method in brief: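 Signal came from […] measured per well once the reagent was added. Beforehand, cells were cultured at 37°C and 5% carbon dioxide on a compound series serially diluted in dimethyl sulfoxide.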

HRAS wild-type protein = HRAS wild-type protein (Homo sapiens, UniProt P01112); assay: Binding to HRAS by surface plasmon resonance (SPR), KD and KD ratio to KRAS; conditions: ratio of KD for HRAS wild-type protein to KD for KRAS
Method in brief: (§1)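 Measured at 30°C: SPR with GDP-loaded, E. coli-expressed biotin-Avi RAS captured (~100–300 RU), ascending 75 s compound injections, HBS pH 7.4 with GDP, MgCl2, 4% DMSO. KD from 1:1 fit.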

[2] = molecular target: GDP-bound NRAS wild-type protein (Homo sapiens, UniProt P01111); assay: Binding to NRAS by surface plasmon resonance (SPR), KD and KD ratio to KRAS; conditions: ratio of KD for GDP-bound NRAS wild-type protein to KD for KRAS
Method in brief: as §1

[3] = molecular target: GDP-bound KRAS wild-type protein (Homo sapiens, UniProt P01116); assay: Binding to KRAS by surface plasmon resonance (SPR), dissociation constant KD; conditions: 1:1 binding model
Method in brief: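 Single-cycle kinetics on GDP-loaded biotin-Avi RAS captured to ~100–300 RU; 75 s ascending injections, 100 µL/min, 30°C. HBS pH 7.4 + 10 mM MgCl2/10 µM GDP/4% DMSO. 1:1 fit, KD.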

Chain of GDP-bound KRAS wild-type protein (P01116 1-188 isoform P01116-2): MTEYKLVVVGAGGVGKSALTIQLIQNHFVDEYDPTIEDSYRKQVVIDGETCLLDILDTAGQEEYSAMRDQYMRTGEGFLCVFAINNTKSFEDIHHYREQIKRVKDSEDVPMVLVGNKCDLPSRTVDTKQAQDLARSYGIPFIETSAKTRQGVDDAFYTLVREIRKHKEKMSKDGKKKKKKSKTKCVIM
Chain of HRAS wild-type protein (P01112 whole entry): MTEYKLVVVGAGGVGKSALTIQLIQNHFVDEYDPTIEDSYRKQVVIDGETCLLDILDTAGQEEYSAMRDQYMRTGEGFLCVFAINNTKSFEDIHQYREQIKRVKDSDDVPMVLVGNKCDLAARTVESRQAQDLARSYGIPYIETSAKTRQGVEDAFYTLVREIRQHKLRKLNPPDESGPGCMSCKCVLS
Chain of GDP-bound NRAS wild-type protein (P01111 whole entry): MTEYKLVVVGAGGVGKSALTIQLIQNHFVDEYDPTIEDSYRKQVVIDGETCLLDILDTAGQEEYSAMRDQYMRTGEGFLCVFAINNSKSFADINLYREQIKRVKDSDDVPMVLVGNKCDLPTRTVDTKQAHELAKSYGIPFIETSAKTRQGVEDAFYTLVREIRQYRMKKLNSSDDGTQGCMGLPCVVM

Compound	IC50 [1]	Kd [3]	HRAS /KRAS (HRAS wild-type protein)	NRAS /KRAS [2]
CCC[C@H]1C(=O)N[C@@H]([C@@H](C)CC)C(=O)N(C)CC(=O)N(C)[C@H]2C/C=C\CCN(C2=O)[C@@H](Cc2ccc(C)cc2)C(=O)N(C)CC(=O)N[C@@H](CCc2ccc(Cl)c(Cl)c2)C(=O)N2C[C@H](OCC)C[C@H]2C(=O)NC2(CC(C)(C)C2)C(=O)N(C)[C@@H](CC2CC2)C(=O)N(C)[C@H](C(=O)N(C)C)CC(=O)N1C [PP2799]	136 nM	1.2 nM	A (a compound having 10 or more and less than 20 is denoted as A)	A (a compound having 10 or more and less than 20 is denoted as A)
CCCC[C@H]1C(=O)N[C@@H]([C@@H](C)CC)C(=O)N(C)CC(=O)N(C)[C@H]2C/C=C\CCN(C2=O)[C@@H](Cc2ccc(C)cc2)C(=O)N(C)CC(=O)N[C@@H](CCc2cc(F)c(C(F)(F)F)c(F)c2)C(=O)N2C[C@H](OCC)C[C@H]2C(=O)NC2(CC(C)(C)C2)C(=O)N(C)[C@@H](C2CCCC2)C(=O)N(C)[C@H](C(=O)N(C)C)CC(=O)N1C [PP2800]	7.9 nM	0.056 nM	A (a compound having 10 or more and less than 20 is denoted as A)	A (a compound having 10 or more and less than 20 is denoted as A)
CCC[C@H]1C(=O)N[C@@H]([C@@H](C)CC)C(=O)N(C2CC2)CC(=O)N(C)[C@H]2C/C=C\CCN(C2=O)[C@@H](Cc2ccc(C)cc2)C(=O)N(C)CC(=O)N[C@@H](CCc2ccc(Cl)c(Cl)c2)C(=O)N2C[C@H](OCC)C[C@H]2C(=O)NC2(CC(C)(C)C2)C(=O)N(C)[C@@H](CC2CC2)C(=O)N(C)[C@H](C(=O)N(C)C)CC(=O)N1C [PP2805]	83 nM	3.7 nM	A (a compound having 10 or more and less than 20 is denoted as A)	A (a compound having 10 or more and less than 20 is denoted as A)
CCO[C@@H]1C[C@H]2C(=O)N(C)C3(CC(C)(C)C3)C(=O)N(C)[C@@H](C(CC)CC)C(=O)N(C)[C@H](C(=O)N(C)C)CC(=O)N(C)[C@@H](COC)C(=O)N[C@@H]([C@@H](C)CC)C(=O)N(C)CC(=O)N(C)[C@H]3C/C=C\CCN(C3=O)[C@@H](Cc3ccc(C)cc3)C(=O)N(C)CC(=O)N[C@@H](CCc3ccc(Cl)c(Cl)c3)C(=O)N2C1 [PP2810]	38.1 nM	0.46 nM	A (a compound having 10 or more and less than 20 is denoted as A)	AA (a compound having 20 or more is denoted as AA)
CCCO[C@@H]1C[C@H]2C(=O)N(C)C3(CC(C)(C)C3)C(=O)N(C)[C@@H](C(CC)CC)C(=O)N(C)[C@H](C(=O)N(C)C)CC(=O)N(C)[C@@H](COC)C(=O)N[C@@H]([C@@H](C)CC)C(=O)N(C)CC(=O)N(C)[C@H]3C/C=C\CCN(C3=O)[C@@H](Cc3ccc(C)cc3)C(=O)N(C)CC(=O)N[C@@H](CCc3ccc(Cl)c(Cl)c3)C(=O)N2C1 [PP2812]	41 nM	0.56 nM	A (a compound having 10 or more and less than 20 is denoted as A)	AA (a compound having 20 or more is denoted as AA)
CCC(CC)[C@H]1C(=O)N(C)[C@H](C(=O)N(C)C)CC(=O)N(C)[C@@H](COC)C(=O)N[C@@H]([C@@H](C)CC)C(=O)N(C)CC(=O)N(C)[C@H]2C/C=C\CCN(C2=O)[C@@H](Cc2ccc(C)cc2)C(=O)N(C)CC(=O)N[C@@H](CCc2ccc(Cl)c(Cl)c2)C(=O)N2C[C@H](OC(C)C)C[C@H]2C(=O)N(C)C2(CC(C)(C)C2)C(=O)N1C [PP2814]	44.4 nM	0.37 nM	A (a compound having 10 or more and less than 20 is denoted as A)	AA (a compound having 20 or more is denoted as AA)
CCC(CC)[C@H]1C(=O)N(C)[C@H](C(=O)N(C)C)CC(=O)N(C)[C@@H](COC)C(=O)N[C@@H]([C@@H](C)CC)C(=O)N(C)CC(=O)N(C)[C@H]2C/C=C\CCN(C2=O)[C@@H](Cc2ccc(C)cc2)C(=O)N(C)CC(=O)N[C@@H](CCc2ccc(Cl)c(Cl)c2)C(=O)N2C[C@H](OC3CCC3)C[C@H]2C(=O)N(C)C2(CC(C)(C)C2)C(=O)N1C [PP2816]	22.8 nM	0.39 nM	A (a compound having 10 or more and less than 20 is denoted as A)	AA (a compound having 20 or more is denoted as AA)
CCC(CC)[C@H]1C(=O)N(C)[C@H](C(=O)N(C)C)CC(=O)N(C)[C@@H](COC)C(=O)N[C@@H]([C@@H](C)CC)C(=O)N(C)CC(=O)N(C)[C@H]2C/C=C\CCN(C2=O)[C@@H](Cc2ccc(C)cc2)C(=O)N(C)CC(=O)N[C@@H](CCc2ccc(Cl)c(Cl)c2)C(=O)N2CC3(CC3)C[C@H]2C(=O)N(C)C2(CC(C)(C)C2)C(=O)N1C [PP2820]	62.4 nM	0.94 nM	A (a compound having 10 or more and less than 20 is denoted as A)	AA (a compound having 20 or more is denoted as AA)

Continued by falling IC50 [1], values first:

IC50 [1]	Kd [3]	Compound	HRAS /KRAS (HRAS wild-type protein)	NRAS /KRAS [2]
112 nM	3.4 nM	CCC[C@H]1C(=O)N[C@@H]([C@@H](C)CC)C(=O)N(C)CC(=O)N(C)[C@H]2C/C=C\CCN(C2=O)[C@@H](Cc2ccc(C)cc2)C(=O)N(C)CC(=O)N[C@@H](CCc2ccc(CC)c(Cl)c2)C(=O)N2C[C@H](OCC)C[C@H]2C(=O)NC2(CC(C)(C)C2)C(=O)N(C)[C@@H](C(CC)CC)C(=O)N(C)[C@H](C(=O)N(C)C)CC(=O)N1C [PP2779]	A (a compound having 10 or more and less than 20 is denoted as A)	A (a compound having 10 or more and less than 20 is denoted as A)
52.8 nM	0.6 nM	CCC[C@H]1C(=O)N[C@@H]([C@@H](C)CC)C(=O)N(C)CC(=O)N(C)[C@H]2C/C=C\CCN(C2=O)[C@@H](Cc2ccc(C)cc2)C(=O)N(C)CC(=O)N[C@@H](CCc2cc(F)c(C(F)(F)F)c(F)c2)C(=O)N2C[C@H](OCC)C[C@H]2C(=O)NC2(CC(C)(C)C2)C(=O)N(C)[C@@H](CC2CC2)C(=O)N(C)[C@H](C(=O)N(C)C)CC(=O)N1C [PP2797]	A (a compound having 10 or more and less than 20 is denoted as A)	A (a compound having 10 or more and less than 20 is denoted as A)
23.4 nM	0.44 nM	CCO[C@@H]1C[C@H]2C(=O)NC3(CCC3)C(=O)N(C)[C@@H](C3CCCC3)C(=O)N(C)[C@H](C(=O)N(C)CC)CC(=O)N(C)[C@@H](CC3CCC3)C(=O)N[C@@H]([C@@H](C)CC)C(=O)N(C)CC(=O)N(C)[C@H]3C/C=C\CCN(C3=O)[C@@H](Cc3ccc(C(F)(F)F)cc3)C(=O)N(C)CC(=O)N[C@@H](CCc3ccc(Cl)c(Cl)c3)C(=O)N2C1 [PP2824]	A (a compound having 10 or more and less than 20 is denoted as A)	A (a compound having 10 or more and less than 20 is denoted as A)
5.5 nM	0.034 nM	CC[C@H](C)[C@@H]1NC(=O)[C@H](CC2CC2)N(C)C(=O)C[C@@H](C(=O)N(C)CC)N(C)C(=O)[C@H](C2CCCC2)N(C)C(=O)C2(CC(C)(C)C2)NC(=O)[C@@H]2C[C@@H](F)CN2C(=O)[C@H](CCc2cc(F)c(C(F)(F)F)c(F)c2)NC(=O)CN(C)C(=O)[C@H](Cc2ccc(C)cc2)N2CC/C=C\C[C@@H](C2=O)N(C)C(=O)CN(C)C1=O [PP2802]	A (a compound having 10 or more and less than 20 is denoted as A)	AA (a compound having 20 or more is denoted as AA)

— patent EP4603105A1, “PHARMACEUTICAL COMPOSITION CONTAINING CYCLIC COMPOUND HAVING SELECTIVE KRAS INHIBITORY EFFECT AGAINST HRAS AND NRAS” (CHUGAI SEIYAKU KABUSHIKI KAISHA, priority 2022, dated 2024)
